{
  "source": "patent EP1671644A2",
  "about": "“Pharmaceutical compositions containing Lysostaphin alone or in combination with an antibiiotic for the treatment of Staphylococcal infections” (priority 1997, dated 1999)",
  "key": {"[1]": {"system": "S. aureus strain AG461", "assay": "Time-kill experiment (Figure 1)", "format": "cell-based, Staphylococcus aureus", "conditions": "vancomycin 2 and 16 µg/ml (one and eight times MIC); three hours of contact", "description": "The bactericidal activity of lysostaphin against S. aureus was also studied by means of time-kill experiments. In one experiment of this type, S. aureus strain AG461, a methicillin-resistant clinical isolate from Genoa, Italy, was inoculated into Mueller-Hinton broth (Difco) and grown at 37°C with gentle shaking until it reached approximately 10^8 viable cells per ml (CFU/ml), as estimated from the absorbance of the culture at 600 nm. The culture was then diluted with fresh broth to approximately 10^6 CFU/ml and 5 ml aliquots were placed in several different flasks for exposure to different concentrations of antibacterial agents. Incubation was continued, with gentle shaking, at 37°C, and samples were withdrawn at intervals for determination of viable cells. Serial 10-fold dilutions of the samples were made in sterile saline (0.9% NaCl in distilled water) and duplicate 0.1 ml aliquots of appropriate dilutions were plated on Tryptic Soy agar plates (Remel) using the agar inclusion method. (In this method, the aliquot to be plated is added to 2.5 ml of top agar, which is mixed and poured onto a plate. Top agar consisted of molten Tryptic Soy agar (Difco) diluted 2-fold with Difco Tryptic Soy broth to give a final agar concentration of 0.75%, w/v.) The plates were incubated for 24-48 hours at 36°C and the colonies were counted manually. […]"}, "[2]": {"system": "methicillin-resistant VISA strain of S. aureus", "assay": "Endocarditis in rabbits caused by a VISA strain", "format": "in vivo", "conditions": "vancomycin 30 mg/kg twice daily"}, "[3]": {"system": "S. aureus Smith", "assay": "Acute infection model in mice (intraperitoneal infection)", "format": "in vivo", "description": "The efficacy of lysostaphin was compared to that of vancomycin in an acute infection model in mice. S. aureus Smith was cultured overnight, with moderate agitation, in Veal Infusion broth (Difco) and diluted in broth containing 5% hog gastric mucin (Difco). Male Swiss~Webster mice (Taconic Farms, Germantown, NY) weighing approximately 20 grams were infected intraperitoneally with 10^5-10^6 viable cells, approximately tenfold the inoculum that reproducibly killed all untreated animals within 48 h. There were six mice in each treatment group. Lysostaphin was administered intravenously (in 0.1 ml 5% dextrose for injection) or subcutaneously (in 0.2 ml), within 10 min of infection. Vancomycin was administered subcutaneously."}, "[4]": {"system": "methicillin-resistant S. aureus strain (MRSA 27619)", "assay": "Experimental aortic valve endocarditis in rabbits", "format": "in vivo", "conditions": "vancomycin 30 mg/kg twice daily iv, three days", "description": "Aortic valve endocarditis was established in New Zealand white rabbits weighing approximately 3 kg. Rabbits were anesthetized and the right carotid artery surgically exposed and cannulated with a polyethylene catheter which was advanced into the left ventricle of the heart. After at least 24 h, the rabbits were infected intravenously with 10^6-10^7 cells of a methicillin-resistant S. aureus strain (MRSA 27619). Twenty-four hours later, the animals were randomly assigned to different treatment groups: untreated control (9 rabbits); positive control, vancomycin 30 mg/kg twice daily (15); lysostaphin 5 mg/kg three times daily (11); lysostaphin 5 mg/kg once daily (10); lysostaphin 5 mg/kg once daily + vancomycin 30 mg/kg twice daily (11). Any rabbits whose infection was not confirmed by pre-treatment blood culture were eliminated.\nAll treatments were intravenous and were carried out for three days. The state of health of the rabbits was assessed at intervals. The rabbits were sacrificed 18 h after the last treatment. Aortic vegetations were removed and weighed and processed to determine the number of viable bacteria, expressed as log10CFU/gram. The limit of detection is 10^2 CFU/gram (log10CFU/gram=2.0). The mean titers of bacteria per gram were compared by one-way analysis of variance. The Student-Newman-Keuls test was used to adjust for multiple comparisons. […]"}},
  "note": "Marks after values point to notes of the source that are not given here.",
  "data": [
    {"smiles": "CN[C@H](CC(C)C)C(=O)N[C@H]1C(=O)N[C@@H](CC(N)=O)C(=O)N[C@H]2C(=O)N[C@H]3C(=O)N[C@H](C(=O)N[C@H](C(=O)O)c4cc(O)cc(O)c4-c4cc3ccc4O)[C@H](O)c3ccc(c(Cl)c3)Oc3cc2cc(c3O[C@@H]2O[C@H](CO)[C@@H](O)[C@H](O)[C@H]2O[C@H]2C[C@](C)(N)[C@H](O)[C@H](C)O2)Oc2ccc(cc2Cl)[C@H]1O", "note": "[vancomycin]", "values": [
      {"measurement": "bactericidal action", "setting": "[1]", "value": "very little killing of the bacteria"},
      {"measurement": "CFU/g vegetation", "setting": "[2]; expressed as log10 of the mean", "value": 6.95, "unit": "CFU/g vegetation"},
      {"measurement": "sterile/total vegetations", "setting": "[2]", "value": "0/13"},
      {"measurement": "% survival", "setting": "[3]; 0.63 mg/kg sc", "value": 0, "unit": "%"},
      {"measurement": "% survival", "setting": "[3]; 1.25 mg/kg sc", "value": 83, "unit": "%"},
      {"measurement": "% survival", "setting": "[3]; 2.5 mg/kg sc", "value": 100, "unit": "%"},
      {"measurement": "% survival", "setting": "[3]; 5 mg/kg sc", "value": 100, "unit": "%"},
      {"measurement": "% survival", "setting": "[3]; Table 4 experiment, 0.63 mg/kg, route not given", "value": 0, "unit": "%"},
      {"measurement": "% survival", "setting": "[3]; Table 4 experiment, 1.25 mg/kg, route not given", "value": 83, "unit": "%"},
      {"measurement": "% survival", "setting": "[3]; Table 4 experiment, 2.5 mg/kg, route not given", "value": 100, "unit": "%"},
      {"measurement": "Mean log10CFU/gram of vegetation ± standard deviation", "setting": "[4]", "value": "5.91 ± 1.67^a log10CFU/gram"},
      {"measurement": "Number of sterile vegetations /total animals treated", "setting": "[4]", "value": "0/15"}
    ]}
  ]
}
